Assay results as given in patent US7521458B2, “Spiropiperidylrifamycins for the treatment of mycobacterial infections” (priority 2004, dated 2009).

Columns and labels:
Type in all cases: cell-based
[1] = system: Mycobacterium tuberculosis ATCC 35838; assay: Method of the proportions, Table 3 entry 3
[2] = system: Mycobacterium Kansasii 4 strains assayed; assay: Method of the proportions, Table 3 entry 12
[3] = system: Mycobacterium tuberculosis H37 RV; assay: Method of the proportions, Table 3 entry 5
[4] = system: Mycobacterium tuberculosis ATCC 35837; assay: Method of the proportions, Table 3 entry 1
[5] = system: Mycobacterium tuberculosis ATCC 35822; assay: Method of the proportions, Table 3 entry 4
[6] = system: Mycobacterium tuberculosis 8 strains assayed; assay: Method of the proportions, Table 3 entry 7
[7] = system: Mycobacterium tuberculosis 38 strains assayed; assay: Method of the proportions, Table 3 entry 6
[8] = system: Mycobacterium avium-intracellulare complex 5 strains assayed; assay: Method of the proportions, Table 3 entry 11
[9] = system: Mycobacterium tuberculosis 3 strains assayed; assay: Method of the proportions, Table 3 entry 9
[10] = system: Mycobacterium tuberculosis 1 strain assayed; assay: Method of the proportions, Table 3 entry 10
[11] = system: Mycobacterium tuberculosis ATCC 35820; assay: Method of the proportions, Table 3 entry 2
[12] = system: Mycobacterium tuberculosis 2 strains assayed; assay: Method of the proportions, Table 3 entry 8
[13] = concentration analysed 0.2 μg/ml
[14] = concentration analysed 25 μg/ml

Molecule	Sensitivity of strain (s/R) ([1]; concentration analysed 1 μg/ml)	Sensitivity of strains (s/R) ([2]; concentration analysed 1 μg/ml)	Sensitivity of strain (s/R) ([3]; concentration analysed 1 μg/ml)	Sensitivity of strain (s/R) ([4]; concentration analysed 1 μg/ml)	Sensitivity of strain (s/R) ([5]; concentration analysed 1 μg/ml)	Sensitivity of strains (s/R) ([6]; concentration analysed 1 μg/ml)	Sensitivity of strains (s/R) ([7]; concentration analysed 1 μg/ml)	Sensitivity of strains (s/R) ([8]; concentration analysed 1 μg/ml)	Sensitivity of strains (s/R) ([9]; concentration analysed 1 μg/ml)	Sensitivity of strain (s/R) ([10]; concentration analysed 1 μg/ml)	Sensitivity of strain (s/R) ([11]; concentration analysed 1 μg/ml)	Sensitivity of strains (s/R) ([12]; concentration analysed 1 μg/ml)	other results
4-deoxo-3,4-[(2R)-2-spiro(N-allyl-2,6-diphenyl-4-piperidil)-2,5-dihydro-1H-imidazo]rifamycin S [RFA 7M]	s (s means sensitive)	s (s means sensitive)	s (s means sensitive)	R (R means resistent)	s (s means sensitive)	s (s means sensitive)	s (s means sensitive)	R (R means resistent)	s (s means sensitive)	s (s means sensitive)	s (s means sensitive)	s (s means sensitive)	
CO[C@H]1/C=C/O[C@@]2(C)Oc3c(C)c(O)c4c(O)c(c(/C=N/N5CCN(C)CC5)c(O)c4c3C2=O)NC(=O)/C(C)=C\C=C\[C@H](C)[C@H](O)[C@@H](C)[C@@H](O)[C@@H](C)[C@H](OC(C)=O)[C@@H]1C [RI, rifampicin]	s (s means sensitive)	s (s means sensitive)	s (s means sensitive)	R (R means resistent)	s (s means sensitive)	s (s means sensitive)	s (s means sensitive)	R (R means resistent)	s (s means sensitive)	s (s means sensitive)	s (s means sensitive)	s (s means sensitive)	MIC ([8]; Mycobacterium avium-intracellulare, five strains, all resistant): > 1 µg/mL
4-deoxo-3,4-[(2R)-2-spiro[2,6-bis(4-methoxiphenyl)-4-piperidyl]-2,5-dihydro-1H-imidazo]rifamycin S [RFA 4M]	s (s means sensitive)	s (s means sensitive)	s (s means sensitive)	s (s means sensitive)	s (s means sensitive)	s (s means sensitive)	s (s means sensitive)	s/R	s (s means sensitive)	s (s means sensitive)	s (s means sensitive)	s (s means sensitive)	
NNC(=O)c1ccncc1 [IZ, isoniazid]													Sensitivity of strain (s/R) [1, 13]: s (s means sensitive); Sensitivity of strains (s/R) [2, 13]: R (R means resistent); Sensitivity of strain (s/R) [3, 13]: s (s means sensitive); Sensitivity of strain (s/R) [4, 13]: s (s means sensitive); Sensitivity of strain (s/R) [5, 13]: R (R means resistent); Sensitivity of strains (s/R) [6, 13]: s (s means sensitive); Sensitivity of strains (s/R) [7, 13]: s (s means sensitive); Sensitivity of strains (s/R) [8, 13]: R (R means resistent); Sensitivity of strains (s/R) [9, 13]: s (s means sensitive); Sensitivity of strain (s/R) [10, 13]: R (R means resistent); Sensitivity of strain (s/R) [11, 13]: s (s means sensitive); Sensitivity of strains (s/R) [12, 13]: R (R means resistent)
4-deoxo-3,4-[(2R)-2-spiro(N-buthyl-2,6-diphenyl-4-piperidil)-2,5-dihydro-1H-imidazo]rifamycin S [RFA 16M]	s (s means sensitive)	s (s means sensitive)	s (s means sensitive)	s (s means sensitive)	s (s means sensitive)	s (s means sensitive)	s (s means sensitive)	s/R	s (s means sensitive)	s (s means sensitive)	s (s means sensitive)	s (s means sensitive)	
NC(=O)c1cnccn1 [PZ, pyrazinamide]													Sensitivity of strain (s/R) [1, 14]: s (s means sensitive); Sensitivity of strains (s/R) [2, 14]: R (R means resistent); Sensitivity of strain (s/R) [3, 14]: s (s means sensitive); Sensitivity of strain (s/R) [4, 14]: s (s means sensitive); Sensitivity of strain (s/R) [5, 14]: s (s means sensitive); Sensitivity of strains (s/R) [6, 14]: R (R means resistent); Sensitivity of strains (s/R) [7, 14]: s (s means sensitive); Sensitivity of strains (s/R) [8, 14]: R (R means resistent); Sensitivity of strains (s/R) [9, 14]: s (s means sensitive); Sensitivity of strain (s/R) [10, 14]: s (s means sensitive); Sensitivity of strain (s/R) [11, 14]: s (s means sensitive); Sensitivity of strains (s/R) [12, 14]: s (s means sensitive)
